Reference: US20180207177A1, “TREATMENT OF TRIPLE NEGATIVE BREAST CANCER UTILIZING ANDROST-5-ENE-3b,17b-DIOL (b-AED), ANDROST-5-ENE-3b,7b,17b-TRIOL (b-AET) AND ESTRADIOL (E2)” (Government of the United States as Represented by the …, priority 2017, published 2018)

Legend:
293T cells = assay: Biological function (phenotype, mobile cells) in 293T cells; assay type: cell-based, human
Description: A non-toxic vehicle for administration of androstene hormones according to embodiments of the present invention was prepared from a first solution and a second solution. The first solution, comprising liposomal formulation, was placed in PEG 300 to a concentration of 5% and heated in a sonicating water bath to about 45° C. The second solution, comprising a selected hormone (one or more of 5Δ-androsten-3β, 17α-diol, 5Δ-androsten-3β, 17β-diol, or 5Δ-androsten-3β,7β,17β-triol), was placed in PEG 300 and heated in a sonicating water bath to about 45° C. The first and second solutions were then combine and stirred until dissolved.
Biological function was tested in 293T cells, which is a human embryonic cell line transformed with Large T antigen […] SV40. This hypotriploid (polyploid) cell line is particularly useful in such transformation studies and has very distinct phenotypes when grown. All androstene hormone treatment applications were at concentrations of 25 μM.

[1] = system: MCF-7 breast cancer cells; assay: Cell death and growth in MCF-7 breast cancer cell cultures; assay type: cell-based; conditions: for MCF7 Cell Death Amount: 25 μM β-AED, 25 μM β-AET, PEG 300/LIPOFECTAMINE vehicle; for cell growth / cell density (microscopic photograph): compared to vehicle FIG. 14
Description: (§1) Hormone dependent, noninvasive, epithelial phenotype (ER/PR positive MCF-7 breast cancer cells) and hormone independent, invasive, mesenchymal phenotype (ER/PR negative MDA-MB-231 breast cancer cell) cell suspensions were acquired and prepared in complete medium (DMEM/F12, 10% FBS, 1% penicillin/streptomycin (Gibco)). Cellular concentration was adjusted to 2×10^5 cells/mL.
(§2) Androstene hormone solutions according to embodiments of the present invention were prepared from a first solution and a second solution. For the first solution, 3.0 mg of β-AED or β-AET was added to warm PEG 300 to prepare 50 mM stock. For the second solution, 10 μL of LIPOFECTAMINE (3:1 DOSPA:DOPE) was introduced to 100 μL of PEG 300, mixed, and incubated in a water bath at 42° C. for 30 min. The first and second solutions were then mixed in a sonicator water bath at 42° C. for 1 hr. The final concentration was 50 mM β-AED (or AET, as used).
(§3) A β-estradiol solution was also prepared by adding 2.7 mg of β-estradiol to 200 μL warmed PEG 300 with LIPOFECTAMINE and then further diluted 1:1000 with PEG-300. The final concentration was 50 μM.
A diluted β-AED (or β-AET) solution was prepared with complete medium at a final concentration of 50 μM (1:1000 dilute of 50 mM). Likewise, a diluted β-E2 solution was prepared with complete medium at a final concentration of 10 nM (1:5000 dilute of 50 μM).
Using a 24-well plate, mixtures of 0.5 mL of cells per well with 0.5 mL of medium diluted hormone vehicle. Cell cultures were maintained at 90% humidity, 7% CO2, and 37° C.

[2] = system: MDA-MB-231 breast cancer cell; assay: Cell death in MDA-MB-231 breast cancer cell cultures; assay type: cell-based; conditions: 25 μM β-AED, 25 μM β-AET, 5 nM E2; PEG 300/LIPOFECTAMINE vehicle
Description: as §1, §2, §3
A diluted β-AED (or β-AET) solution was prepared with complete medium at a final concentration of 50 μM (1:1000 dilute of 50 mM). Likewise, a diluted β-E2 solution was prepared with complete medium at a final concentration of 10 nM (1:5000 dilute of 50 μM). […]

[3] = vehicle PEG 300, androstene hormone 25 μM
[4] = MCF-7 grown for 5 days, 25 μM androstene, 5 nM E2

Compound	cell islands (photograph) (293T cells; [3])	mobile cells / cell processes (photograph) (293T cells; [3])	mobile cells / mobile elements and processes (photograph) (293T cells; vehicle PEG 300 and LIPOFECTAMINE, β-AED 25 μM, E2 5 nM)	MCF7 Cell Death Amount ([1]; 5 nM E2)	particles / cell bodies produced by cells in response to treatment [1, 4]	cell growth / cell density (microscopic photograph) [1, 4]	Additional Observation ([1]; cell line not given, particles shown for MCF-7 in FIG. 15)	MDA-MB-231 Cell Death Amount [2]
C[C@]12CC[C@H]3[C@@H](CC=C4C[C@@H](O)CC[C@@]43C)[C@@H]1CC[C@@H]2O [β-AED, androst-5-ene-3β,17β-diol]	cell islands are larger	significant reduction in mobile cells	drastic decrease in, or morphological change, in mobile elements	Not observed	small particles	not as heath and there are areas of decreased density	Cell particles observed	Not observed
C[C@]12CC[C@H]3[C@@H]([C@@H](O)C=C4C[C@@H](O)CC[C@@]43C)[C@@H]1CC[C@@H]2O [β-AET, 5-androstene-3β,7β,17β-triol]	–	–	–	Not observed	–	thick and similar to the cell growth of FIG. 14	–	Not observed
